Reference: patent publication US6429286B1, “Immunoregulatory molecules for costimulatory signal transduction” (priority 1997, dated 2002)
No end group written: not given here.

T1: mouse CD80-Ig (Mus musculus, UniProt Q00609)
T1 construct: Ig (immunoglobulin fusion partner); made in house; host or cells: COS7 cells (pCDM8 plasmid), purified on Protein A Sepharose
T1 sequence (Q00609 38-246 limits assumed): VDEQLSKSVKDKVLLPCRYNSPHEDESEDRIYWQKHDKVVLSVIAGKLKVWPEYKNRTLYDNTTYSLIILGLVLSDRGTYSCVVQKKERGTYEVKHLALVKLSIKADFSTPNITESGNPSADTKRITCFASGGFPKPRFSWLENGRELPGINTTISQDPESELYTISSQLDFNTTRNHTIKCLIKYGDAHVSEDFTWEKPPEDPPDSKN

T2: human CD80-Ig (Homo sapiens, UniProt P33681)
T2 construct: a fused gene of human CD80 extracellular domain and human Ig Cγl domain; made in house; host or cells: COS7 cells (pCDM8 plasmid, DEAE-dextran), purified on Protein A Sepharose
T2 sequence (P33681 35-242 limits assumed): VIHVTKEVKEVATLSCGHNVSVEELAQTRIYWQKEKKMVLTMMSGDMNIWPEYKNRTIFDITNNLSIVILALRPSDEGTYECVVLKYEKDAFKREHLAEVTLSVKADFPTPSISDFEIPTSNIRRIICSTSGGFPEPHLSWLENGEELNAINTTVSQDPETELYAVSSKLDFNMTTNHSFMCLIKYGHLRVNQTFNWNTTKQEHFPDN

B1: phage expressing F2 sequence (peptide)
chain: ADGAGFVCSGIFAVGVGRCGAAGAETVESCLAKPHTENSFTNVWKDDKTLDRYANYEGCLWNATGVVVCTGDETQCYGTWVPIGLAIPENEGGGSEGGGSEGGGSEGGGTKPPEYGDTPIPGYTYINPLDGTYPPGTEQNPANPNPSLEESQPLNTFMFQNNRFRNRQGALTVYTGTVTQGTDPVKTYYQYTPVSSKAMYDAYWNGKFRDCAFHSGFNEDPFVCEYQGQSSDLPQPPVNAGGGSGGGSGGGSEGGGSEGGGSEGGGSEGGGSGGGSGSGDFDYEKMANANKGAMTENADENALQSDAKGKLDSVATDYGAAIDGFIGDVSGLANGNGATGDFAGSNSQMAQVGDGDNSPLMNNFRQYLPSLPQSVECRPYVFGAGKPYEFSIDCDKINLFRGVFAFLLYVATFMYVFSTFANILRNKES
notes: also called F2 phage

Columns and labels:
[1] = system: T cells (spleen cells); experiment: T cell growth stimulating activity in spleen cells of mice immunized with egg lysozyme; format: cell-based, BALB/c mice; settings: egg lysozyme 3 μg/ml plus phage 1 μg/ml added separately, W. T. phage as negative control, FIG. 8
Description: In Example 6, there were used a phage protein as a primary antigen stimulation and the phage protein with expressed F2 or F6 sequence as a secondary stimulation in vitro. That is, in Example 6, a phage protein was used as an antigen and a secondary stimulation was made in a condition where both said antigen and F2 or F6 sequence are on the same particle. In this Example, however, the activity to stimulate the growth of T cells of phages expressing F2 or F6 as described in Example 6 was investigated wherein an antigen irrelevant to the phage (egg lysozyme) was used as a primary antigen stimulation and the egg lysozyme plus the phage particles expressing F2 or F6 sequence were separately added as a secondary stimulation.
Egg lysozyme 10 μg (100 μl/Freund's incomplete adjuvant (FIA)) was subcutaneously injected to BALB/c mice. Four weeks after administration, spleen cells and the relevant lymph nodes were removed from each mouse in a usual manner. Each well of 96-well culture plate was added with the spleen cells at 1.5×10^5 cells/well and with egg lysozyme at 3 μg/ml. Phages expressing F2 or F6 sequence were added at 1 μg/ml either at the same time, 1 day after, or 2 days after, the addition of egg lysozyme. As a negative control, W. T. phage was added. Measurement after culture was as described in Example 6.

[2] = target: T1, mouse CD80-Ig; experiment: ELISA: binding of plate-coated phages to mouse CD80-Ig; settings: for binding to mouse CD80-Ig: ELISA, 200 to 1000 ng/35 μl mouse CD80-Ig, FIG. 5
Protocol: (§1) The binding activity was measured by ELISA. A 96-well ELISA plate (Sumitomo Bakelite, Tokyo) was coated with phages expressing F2 or F6 sequence (4×10^9 virions/well/40 pi) at 4° C. overnight and then blocked with 50 mM Tris-HCl, pH 7.5, 150 mM NaCl (TBS) supplemented with 1% BSA at room temperature for 2 hours. After washing the plate with TBST, the plate was added with 200 to 1000 ng/35 μl of mouse CD80-Ig diluted with PBS and reacted at room temperature for 1 hour. After washing with TBST, the plate was reacted with alkali phosphatase-labeled anti-human IgG antibody (Zymet, California) diluted with TBS by 100-fold at room temperature for 1 hour. After washing, to the plate was added the substrate sodium p-nitrophenylphosphate hexahydrate and absorbance at 405 nm was measured.

[3] = system: anti-mouse CTLA-4 monoclonal antibody; experiment: ELISA: reactivity of plate-coated phage clones with the anti-mouse CTLA-4 monoclonal antibody; format: binding, hamster; settings: phage 4x10^9 virions/well, antibody 200 ng/ml, FIG. 2 and 3
Protocol: The obtained 58 phage clones were subjected to primary screening with ELISA. A 96 well ELISA plate (Sumitomo Bakelite, Tokyo) was coated with each phage (4×10^9 virions/well/40 μl) purified as described by Smith et al. (G. P. Smith, Method in Enzymology, Vol. 217, p.228-257 (1993), Academic Press) at 4° C. overnight. The plate was washed with TBST and was blocked with 100 μl/well of 50 mM Tris-HCl, pH 7.5, 150 mM NaCl supplemented with 0.02% NaN3 and 1% BSA at room temperature for 2 hours. After washing with TBST, the plate was added with the anti-mouse CTLA-4 monoclonal antibody (200 ng/ml/well/100 μl) and reacted at room temperature for 1 hour. After washing with TBST; the plate was reacted with anti-hamster IgG antibody (Zymet, California) labeled with alkaline phosphatase diluted to 250-fold with TBS at room temperature for 1 hour. After washing, the plate was added with the substrate sodium p-nitrophenylphosphate hexahydrate (Wako Junyaku, Osaka) was added and absorbance at 405 nm was measured.
Whether each of the motifs as shown in Example 4 specifically binds to the anti-mouse CTLA-4 monoclonal antibody was investigated. A degree of specificity was determined by ELISA as described in Example 3. As a negative control, anti-mouse CD28 antibody (Phamingen, San Diego), having the same isotype with the anti-mouse CTLA-4 monoclonal antibody, and hamster IgG were used. Anti-hamster IgG antibody was used as a detection antibody. […] E. coli producing the phage expressing F2 sequence and the phage expressing F6 sequence have been deposited by the applicant in accordance with the Budapest Treaty as Escherichia coli F2 [FERM BP-6009] and as Escherichia coli F6 [FERM BP-60103], respectively, at National Institute of Bioscience and Human-Technology Agency of Industrial Science and Technology, 1-3, Higashi 1-chome, Tsukuba-shi, Ibaraki-ken, 305, Japan, on Apr. 14, 1997 (original deposition date: transferred from FERM P-16192 and FERM P-16193, respectively, to the deposition under the Budapest Treaty on Jul. 4, 1997).

[4] = system: anti-HBsAg antibody production; experiment: Anti-HBsAg antibody production in mice immunized with yHBsAg together with phages; format: in vivo, BALB/c mice; settings: i.p. yHBsAg 10 μg with phage, boost at 15 days, blood three weeks after immunization, FIG. 11
Protocol: BALB/c mice (four animals per group) were administered intraperitoneally with either 10 μg (100 μl/PBS) of recombinant HBsAg produced in yeast (yHBsAg; Juridical Foundation The Chemo-Sero-Therapeutic Research Institute) alone or in combination with phages expressing F2 or F6 (10: pg/100 μl). Fifteen days after primary immunization, th-e same samples were administered intraperitoneally., Three weeks after primary immunization, each mouse was bled. Serum was diluted with PBS-to 50-fold, 200-fold and 800-fold and then anti-HBsAg antibody titer was measured with Ausab EIA kit (Abbott Laboratories).
The antibody titer was measured using a positive control attached to the kit as a standard.

[5] = system: T cells (spleen cells); experiment: Effect of CD80-Ig or CD86-Ig on the T cell growth stimulating activity of the phages; format: cell-based, BALB/c mice; settings: phage 1 μg/ml, egg lysozyme 3 μg/ml; for effect of CD80-Ig on T cell growth stimulating activity: CD80-Ig 0-1 μg/ml, FIG. 9 and 10
Protocol: Each phage expressing F2 or F6 sequence reacted with anti-mouse CTLA-4 monoclonal antibody as shown in Example 5. Phage expressing F2 specifically bound to mouse CD80-Ig as shown in Example 7.
Egg lysozyme 50 μg (100 μl/PBS) was intraperitoneally administered to BALB/c mice. Four weeks after administration, spleen cells were removed from each mouse in a usual manner. In this Example, to each well of a 96-well culture plate were added the spleen cells at 1.5×10^5 cells/well and egg lysozyme at 3 μg/ml together with phage expressing F2 or F6 (1 μg/ml) and CD80-Ig or CD86-Ig or human Ig as a negative control at 0-1 μg/ml. The T cell growth stimulating activity was determined as described in Example 6.

[6] = target: T2, human CD80-Ig; experiment: ELISA: binding of phage expressing F2 sequence to human CD80-Ig; settings: mouse CTLA-4-Ig and human IgG as negative control, FIG. 7
Protocol: as §1
Then, whether phage expressing F2 sequence specifically binds to human CD80-Ig was investigated in this Example as described in Example 7, FIG. 5.
Human CD80-Ig was prepared by constructing a fused gene of human CD80 extracellular domain and human Ig Cγl domain as described by Linsley et al. (J. Exp. Med. Vol. 173, p.721-730 (1991)). An expression plasmid pCDM8 incorporating the fused gene fragment was introduced into COS7 cells by DEAE-dextran method. After culturing for 72 hours, human CD80-Ig was purified from culture supernatant with Protein A Sepharose (Pharmacia). […]

[7] = system: T cells (spleen cells); experiment: T cell growth, [3H]-thymidine take-up by spleen cells of mice primed with W. T. phage; format: cell-based, BALB/c mice; settings: phage 0.015 to 5 μg/ml, three days culture, FIG. 4
Protocol: BALB/c mice (6 weeks old; four animals per group) were used in an experiment and the phages were purified as described by Smith et al. (G. P. Smith, Method in Enzymology, Vol. 217, p.228-257 (1993), Academic Press). An amount of the phages was measured using protein assay kit (BioRad) with bovine serum albumin as a standard and expressed as a protein concentration.
First, for antigen, stimulation, BALB/c mice were administered intraperitoneally with 10 μg (200 μl/PBS) of phage (W. T.) not expressing pIII protein. Four weeks after the administration, spleen cells were removed from each mouse in the usual manner. The spleen cells were added to each well of 96-well culture plate at 1.5×10^5 cells/well. To each well was added purified W. T. or phages expressing any of F1 to F6 sequence at a final concentration of 0.015 to 5 μg/ml to make a total volume of 200 μl (RPMS 1640 medium containing 10% FCS) Triplicates were used for each sample. After incubating these samples on ice for 30 minutes, the cells were cultured under condition of 5% CO2 at 37° C. for three days. Eighteen hours before completion of culture, the cells were pulse-labeled with [^3H]-thymidine (0.5 μCi/well). The cells were harvested with a cell harvester and a take-up of [^3H]-thymidine was measured with a liquid scintillation counter.

[8] = target: T3, mouse CTLA-4-Ig (mouse, UniProt P09793 36-161); experiment: ELISA, F2 phage coated, reacted with mouse CD80-Ig, mouse CTLA-4-Ig and human IgG
T3 construct: also called CTLA-4-Ig chimeric molecule; not shown: Ig part of the chimera; not described for this construct

Molecule	T cell growth stimulating activity, egg lysozyme as antigen [1]	binding to mouse CD80-Ig [2]	reactivity with anti-mouse CTLA-4 monoclonal antibody [3]	anti-HBsAg antibody titer relative to group immunized with HBsAg alone (= 1) [4]	effect of CD80-Ig on T cell growth stimulating activity [5]	growth of T cells as compared to W. T. phage [7]	also measured
APGVRLGCAVLGRYC (cysteine pairing not given here) [F6]	exhibited the antigen-specific activity to stimulate the growth of T cells	do not bind to CD80/CD86 molecules	reacted most strongly	11.9	did not inhibit		effect of CD86-Ig on T cell growth stimulating activity ([5]; CD86-Ig 0-1 μg/ml, FIG. 10): did not inhibit
GFVCSGIFAVGVGRC (cysteine pairing not given here) [F2]	exhibited the antigen-specific activity to stimulate the growth of T cells	bound to mouse CD80-Ig in a concentration-dependent manner	reacted most strongly	17.9	greatly inhibited		binding to human CD80-Ig [6]: specifically bound to human CD80-Ig; binding specificity to mouse CD80-Ig ([2]; ELISA against mouse CD80-Ig, mouse CTLA-4-Ig and human IgG, FIG. 6): specifically reacted with mouse CD80-Ig
GLHSRCHIGRDCSSA (cysteine pairing not given here) [F1]			reacted weakly			approximately equivalent to that with W. T. phage	
HYGDCRYDLGSCRGA (cysteine pairing not given here) [F4]			reacted weakly			approximately equivalent to that with W. T. phage	
SCVFHHSGRYWGRCV (cysteine pairing not given here) [F3]			reacted more weakly			approximately equivalent to that with W. T. phage	
B1							binding result [8]: no binding
